Measurements published in ChEMBL document CHEMBL1153384, “Synthesis, antimalarial activity, and preclinical pharmacology of a novel series of 4'-fluoro and 4'-chloro analogues of amodiaquine. Identification of a suitable "back-up" compound for N-tert-butyl isoquine” (J Med Chem, 2009).

Key:
Plasmodium falciparum [1] = assay: Antimalarial activity against chloroquine-sensitive Plasmodium falciparum 3D7; assay type: functional, organism-based
Plasmodium falciparum [2] = assay: Antimalarial activity against chloroquine-sensitive Plasmodium falciparum HB3; assay type: functional, organism-based
Heme [3] = assay: Binding affinity to heme assessed as binding constant for stepwise binding of 2 equivalent of drug to 1 molecule of heme in presence of 40% DMSO by UV-visible spectroscopy
Plasmodium falciparum [4] = assay: Antimalarial activity against chloroquine-resistant Plasmodium falciparum TM6; assay type: functional, organism-based
Cytochrome P450 3A4 [5] = molecular target: T1, Cytochrome P450 3A4 (Homo sapiens, UniProt P08684); assay: Inhibition of human CYP3A4 using PPR substrate; assay type: ADME; details: read-out: IC50
T1 sequence (P08684 whole entry): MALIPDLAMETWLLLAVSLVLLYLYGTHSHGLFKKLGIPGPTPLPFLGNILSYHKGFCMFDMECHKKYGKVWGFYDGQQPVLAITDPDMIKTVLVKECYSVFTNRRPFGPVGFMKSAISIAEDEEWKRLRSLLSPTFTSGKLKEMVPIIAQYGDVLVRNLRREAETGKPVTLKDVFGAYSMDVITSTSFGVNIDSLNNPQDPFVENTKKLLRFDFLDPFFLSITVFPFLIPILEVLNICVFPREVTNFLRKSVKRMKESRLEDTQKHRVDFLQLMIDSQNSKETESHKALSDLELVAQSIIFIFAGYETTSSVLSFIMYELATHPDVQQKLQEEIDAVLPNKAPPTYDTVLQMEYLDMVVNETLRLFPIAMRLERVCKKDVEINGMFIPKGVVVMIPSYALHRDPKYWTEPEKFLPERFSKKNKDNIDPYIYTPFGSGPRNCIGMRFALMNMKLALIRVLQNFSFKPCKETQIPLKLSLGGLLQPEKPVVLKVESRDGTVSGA

Heme [6] = assay: Binding affinity to heme assessed as binding constant for stepwise binding of 2 molecules of heme to 1 equivalent of drug in presence of 40% DMSO by UV-visible spectroscopy
Plasmodium falciparum [7] = assay: Antimalarial activity against chloroquine-resistant Plasmodium falciparum V1/S; assay type: functional, organism-based; details: V1S
[8] = Partition coefficient, log P of the compound; assay type: physicochemical; details: octanol/water
[9] = Toxicity against Wistar rat hepatocytes after 6 hrs by trypan blue exclusion method; assay type: cell-based, Hepatocyte; details: read-out: TC50
[10] = Toxicity in po dosed mouse assessed as drug level causing no observed adverse effects administered as single dose; assay type: organism-based; details: in vivo, read-out: Activity
Mus musculus [11] = assay: Toxicity in po dosed mouse assessed as maximal nonlethal dose administered as single dose; assay type: organism-based; details: in vivo
Mus musculus [12] = assay: Toxicity in po dosed mouse assessed as induction of hematological toxicity at drug dose above no observed adverse effects level; assay type: organism-based; details: in vivo
[13] = Toxicity in po dosed mouse assessed as drug level causing no observed adverse effects administered as once daily for 4 days; assay type: organism-based; details: in vivo, read-out: Activity
Mus musculus [14] = assay: Toxicity in po dosed mouse assessed as induction of hepatotoxicity at drug dose above no observed adverse effects level; assay type: organism-based; details: in vivo
Cytochrome P450 3A4 [15] = molecular target: T1, Cytochrome P450 3A4; assay: Inhibition of human CYP3A4 using DEF substrate; assay type: ADME
[16] = Distribution coefficient, log D at pH 7.4; details: octanol/water
Plasmodium falciparum [17] = assay: Antimalarial activity against chloroquine-resistant Plasmodium falciparum J164; assay type: functional, organism-based
Plasmodium yoelii [18] = assay: In vivo antimalarial activity against Plasmodium yoelii NS peroral dosage; assay type: functional; details: po
[19] = molecular target: β-hematin formation (no protein target); assay: Inhibition of beta-hematin formation as molar equivalent relative to hemin causing blockade in BHIA
Cytochrome P450 2D6 = Cytochrome P450 2D6 (Homo sapiens, UniProt P10635); assay: Inhibition of human CYP2D6; assay type: ADME
Chain of Cytochrome P450 2D6 (P10635 whole entry): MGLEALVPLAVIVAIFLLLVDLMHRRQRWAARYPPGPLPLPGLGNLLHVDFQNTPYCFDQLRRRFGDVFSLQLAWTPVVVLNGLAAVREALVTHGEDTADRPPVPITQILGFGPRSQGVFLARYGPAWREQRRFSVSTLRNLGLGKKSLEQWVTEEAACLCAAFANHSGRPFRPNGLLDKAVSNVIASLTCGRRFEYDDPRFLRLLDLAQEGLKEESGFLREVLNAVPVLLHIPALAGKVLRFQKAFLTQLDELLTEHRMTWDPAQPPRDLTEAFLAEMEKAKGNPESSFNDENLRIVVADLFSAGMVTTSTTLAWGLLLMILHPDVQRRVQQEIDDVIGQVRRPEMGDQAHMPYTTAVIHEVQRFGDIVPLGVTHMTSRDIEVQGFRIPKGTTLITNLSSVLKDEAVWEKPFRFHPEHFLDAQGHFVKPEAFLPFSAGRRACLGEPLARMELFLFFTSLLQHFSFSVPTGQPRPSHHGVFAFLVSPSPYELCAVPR

Cytochrome P450 2C9 = Cytochrome P450 2C9 (Homo sapiens, UniProt P11712); assay: Inhibition of human CYP2C9; assay type: ADME
Chain of Cytochrome P450 2C9 (P11712 whole entry): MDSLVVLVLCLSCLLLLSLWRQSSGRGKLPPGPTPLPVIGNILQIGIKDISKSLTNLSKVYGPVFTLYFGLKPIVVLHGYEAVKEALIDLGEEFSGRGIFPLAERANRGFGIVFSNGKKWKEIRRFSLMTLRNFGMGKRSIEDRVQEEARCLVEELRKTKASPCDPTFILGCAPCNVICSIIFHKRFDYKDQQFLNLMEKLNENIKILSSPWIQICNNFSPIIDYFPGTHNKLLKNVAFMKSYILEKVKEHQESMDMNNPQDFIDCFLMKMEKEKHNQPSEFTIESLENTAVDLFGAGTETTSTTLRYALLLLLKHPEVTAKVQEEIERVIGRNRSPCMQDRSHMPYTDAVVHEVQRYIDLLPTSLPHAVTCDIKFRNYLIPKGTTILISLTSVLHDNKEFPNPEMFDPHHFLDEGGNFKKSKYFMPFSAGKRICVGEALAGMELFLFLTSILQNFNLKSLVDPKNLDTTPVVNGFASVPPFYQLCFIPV

Cytochrome P450 2C19 = Cytochrome P450 2C19 (Homo sapiens, UniProt P33261); assay: Inhibition of human CYP2C19; assay type: ADME
Chain of Cytochrome P450 2C19 (P33261 whole entry): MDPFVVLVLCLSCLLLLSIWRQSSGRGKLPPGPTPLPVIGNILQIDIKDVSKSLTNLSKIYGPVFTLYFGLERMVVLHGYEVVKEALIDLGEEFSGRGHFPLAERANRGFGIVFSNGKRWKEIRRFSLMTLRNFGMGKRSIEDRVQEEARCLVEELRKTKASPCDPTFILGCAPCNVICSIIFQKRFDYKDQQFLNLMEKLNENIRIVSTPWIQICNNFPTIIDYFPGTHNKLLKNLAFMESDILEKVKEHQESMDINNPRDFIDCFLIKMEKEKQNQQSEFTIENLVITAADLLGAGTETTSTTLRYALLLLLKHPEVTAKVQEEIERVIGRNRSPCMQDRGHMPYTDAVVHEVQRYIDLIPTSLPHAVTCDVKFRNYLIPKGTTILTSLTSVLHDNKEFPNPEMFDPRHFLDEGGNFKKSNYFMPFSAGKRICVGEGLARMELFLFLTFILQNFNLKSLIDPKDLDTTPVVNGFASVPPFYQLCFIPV

Cytochrome P450 1A2 = molecular target: T2, Cytochrome P450 1A2 (Homo sapiens, UniProt P05177); assay: Inhibition of human CYP1A2; assay type: ADME
T2 sequence (P05177 whole entry): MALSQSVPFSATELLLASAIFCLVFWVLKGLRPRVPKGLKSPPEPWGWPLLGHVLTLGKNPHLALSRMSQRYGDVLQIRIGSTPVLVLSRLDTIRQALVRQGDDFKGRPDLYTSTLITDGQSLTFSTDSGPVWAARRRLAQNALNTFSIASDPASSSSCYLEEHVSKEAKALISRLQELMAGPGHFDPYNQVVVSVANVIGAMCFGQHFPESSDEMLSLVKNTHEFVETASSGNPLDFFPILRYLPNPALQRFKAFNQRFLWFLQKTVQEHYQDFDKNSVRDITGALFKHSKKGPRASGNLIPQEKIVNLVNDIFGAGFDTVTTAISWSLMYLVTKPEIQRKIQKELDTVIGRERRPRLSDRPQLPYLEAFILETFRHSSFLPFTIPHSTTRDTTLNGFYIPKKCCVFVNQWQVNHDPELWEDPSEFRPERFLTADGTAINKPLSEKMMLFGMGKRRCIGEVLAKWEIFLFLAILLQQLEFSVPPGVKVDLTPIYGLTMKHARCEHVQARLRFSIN

Cytochrome P450 2C8 = molecular target: T3, Cytochrome P450 2C8 (Homo sapiens, UniProt P10632); assay: Inhibition of human CYP2C8; assay type: ADME
T3 sequence (P10632 whole entry): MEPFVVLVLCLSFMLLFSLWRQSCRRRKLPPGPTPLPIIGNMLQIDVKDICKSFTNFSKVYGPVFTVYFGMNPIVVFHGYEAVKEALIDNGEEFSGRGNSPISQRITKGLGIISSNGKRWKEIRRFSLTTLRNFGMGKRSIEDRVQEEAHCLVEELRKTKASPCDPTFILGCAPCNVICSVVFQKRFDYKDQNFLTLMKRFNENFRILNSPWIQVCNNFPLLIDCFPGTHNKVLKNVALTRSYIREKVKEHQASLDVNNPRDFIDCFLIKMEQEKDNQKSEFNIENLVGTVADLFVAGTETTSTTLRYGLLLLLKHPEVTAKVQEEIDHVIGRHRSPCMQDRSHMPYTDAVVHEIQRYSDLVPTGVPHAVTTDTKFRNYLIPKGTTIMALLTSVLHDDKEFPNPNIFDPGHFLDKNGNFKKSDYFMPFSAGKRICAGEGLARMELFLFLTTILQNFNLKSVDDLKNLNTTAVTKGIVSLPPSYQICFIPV

Heme [20] = tested on: Heme
Heme [21] = tested on: Heme; remark: listed apart in the source
[22] = Clearance in iv dosed mouse; assay type: ADME, organism-based; details: in vivo
Plasmodium yoelii [23] = assay: Antimalarial activity as minimal concentration for parasite elimination at day 23 against Plasmodium yoelii 17X intravenously inoculated CD1 mice (Mus musculus) dosed 1 hrs post infection then daily for 4 days
Plasmodium yoelii [24] = assay: Antimalarial activity as reduced parasitaemia against Plasmodium yoelii 17X infected CD1 mice (Mus musculus) perorally dosed daily for 4 days; assay type: functional; details: po, 96 h
[25] = Oral bioavailability in rat; assay type: ADME, organism-based; details: in vivo
[26] = Clearance in iv dosed rat; assay type: ADME, organism-based; details: in vivo
[27] = Oral bioavailability in mouse; assay type: ADME, organism-based; details: in vivo

## CCCCN(CCCC)Cc1cc(Nc2ccnc3cc(Cl)ccc23)ccc1F
Plasmodium falciparum [1]
  IC50: 95.2 nM

## CCN(CC)Cc1cc(Nc2ccnc3cc(Cl)ccc23)ccc1O.Cl
Plasmodium falciparum [2]
  IC50: 5.5 nM
Heme [3]
  log Ks: 4.4
Plasmodium falciparum [4]
  IC50: 7.2 nM
Cytochrome P450 3A4 [5]
  IC50: > 100 µM
Heme [6]
  log Ks: 6.2
Plasmodium falciparum [7]
  IC50: 8.9 nM
[8]
  logP: 4.37
[9]
  CC50 at 6 h: 78 µM
[10]
  NOAEL: 100 mg/kg
Mus musculus [11]
  Activity: > 500 mg/kg
Mus musculus [12]
  Activity: Toxic
[13]
  NOAEL at 96 h: 100 mg/kg
Mus musculus [14]
  Activity: Toxic
Cytochrome P450 3A4 [15]
  IC50: 28 µM
[16]
  logD: 3.08
Plasmodium falciparum [17]
  IC50: 18.5 nM
Plasmodium yoelii [18]
  ED50: 7.4 mg/kg

## CC(C)N1CCN(Cc2cc(Nc3ccnc4cc(Cl)ccc34)ccc2Cl)CC1
Plasmodium falciparum [2]
  IC50: 9.1 nM
Plasmodium falciparum [4]
  IC50: 6.4 nM
[8]
  logP: 5.14
[19]
  IC50: 1.66 molar ratio

## CCNCc1cc(Nc2ccnc3cc(Cl)ccc23)ccc1O [DESETHYL AMODIAQUINE]
Cytochrome P450 2D6
  IC50: 6.4 µM
Cytochrome P450 3A4 [5]
  IC50: > 100 µM
Cytochrome P450 2C9
  IC50: 58 µM
Cytochrome P450 2C19
  IC50: 54 µM
Cytochrome P450 1A2
  IC50: 28 µM
Cytochrome P450 3A4 [15]
  IC50: 24 µM
Cytochrome P450 2C8
  IC50: 20 µM

## CN1CCN(Cc2cc(Nc3ccnc4cc(Cl)ccc34)ccc2Cl)CC1
Plasmodium falciparum [2]
  IC50: 54.5 nM
Plasmodium falciparum [4]
  IC50: 24.4 nM
Plasmodium falciparum [1]
  IC50: 86.8 nM

## OC(c1cc(C(F)(F)F)nc2c(C(F)(F)F)cccc12)C1CCCCN1 (configuration not stated)
Heme [3]
  log Ks: 3.84
Heme [6]
  log Ks: 3.17

## CCN(CC)Cc1cc(Nc2ccnc3cc(Cl)ccc23)ccc1Cl
Plasmodium falciparum [2]
  IC50: 12.3 nM
Plasmodium falciparum [4]
  IC50: 10.2 nM
Plasmodium falciparum [1]
  IC50: 30.4 nM

## CN1CCN(Cc2cc(Nc3ccnc4cc(Cl)ccc34)ccc2F)CC1
Plasmodium falciparum [1]
  IC50: 35.1 nM

## Clc1ccc2c(Nc3ccc(Cl)c(CN4CCN(c5ccccn5)CC4)c3)ccnc2c1
Plasmodium falciparum [2]
  IC50: 485 nM
Plasmodium falciparum [4]
  IC50: 500 nM
Plasmodium falciparum [1]
  IC50: 27.2 nM

## c1ccncc1
Heme [20]
  log Ks: 2.54
Heme [3]
  log Ks: 2.5
Heme [6]
  log Ks: 0.18
Heme [21]
  log Ks: 2.24

## CCCN(CCC)Cc1cc(Nc2ccnc3cc(Cl)ccc23)ccc1Cl
Plasmodium falciparum [1]
  IC50: 277 nM

## Fc1ccc(Nc2ccnc3cc(Cl)ccc23)cc1CN1CCCCC1
Plasmodium falciparum [1]
  IC50: 33.2 nM

## CC(C)(C)NCc1cccc(Nc2ccnc3cc(Cl)ccc23)c1
[19]
  IC50: 1.65 molar ratio

## CCNCc1ccc(Nc2ccnc3cc(Cl)ccc23)cc1O [DESETHYL ISOQUINE]
[22]
  clearance: 43.5 mL/min/kg
Plasmodium yoelii [23]
  Activity: >40 mg/kg
Plasmodium yoelii [24]
  ED50: 5.5 mg/kg
  ED90: 8 mg/kg
[25]
  bioavailability: 60%
[26]
  clearance: 61.5 mL/min/kg
[27]
  bioavailability: 100%

## C=C[C@H]1CN2CC[C@H]1C[C@H]2[C@H](O)c1ccnc2ccc(OC)cc12
Heme [3]
  log Ks: 4.4
Heme [6]
  log Ks: 4.1
